These results are taken from US12385042B2, “Cell-penetrating peptides” (VECTIOPEP OÜ, priority 2019, dated 2025).

Entries after “also recorded” stand apart in the source; their conditions may differ. Read-outs that look alike come from different tables or passages of the source. Where a SMILES comes first, the peptide text is derived from it. Bridges are numbered along the chain shown (N, C = ends). Roman numbers before positions name the chains, in order. [ ]: non-standard residue; d: D form. The star is where a group is joined. Arachidoyl = CCCCCCCCCCCCCCCCCCCC(=O)*; Stearoyl = CCCCCCCCCCCCCCCCCC(=O)*; Orn = NCCC[C@H](N)C(=O)O

Data set [1] relates to CHO stably expressing green fluorescent protein (GFP). The experiment in a line: GFP gene downregulation by CPP/siGFP complexes (lysate fluorescence, FACS, confocal). As to conditions: for GFP signal in confocal images: live cells treated with CPP/siGFP complexes. It is filed as cell-based. The method, then: For assessing the siRNA mediated RNAi, CHO-GFP or U87-luc2 cells (5×10^5 cells per well) were seeded on a 24-well plate a day prior to the experiment and grown in serum containing media. On experiment day, prior to adding pre-formed complexes ( 1/10th of the final volume per well), media was replaced with fresh serum containing medium.
For complex formation, peptide was mixed with luc2 siRNA (sense 5′-[…]-3′ (SEQ ID NO:7), antisense 5′-[…] 3′ (SEQ ID NO:8), Metabion, Germany) or with siRNA against GFP (5′-[…] (SEQ ID NO:9), 3′-[…] (SEQ ID NO:10)) in mQ water (pH 5.3-6.3) using peptide to siRNA molar ratios (MR is the ratio of peptide to siRNA) […] and incubated at RT for 1 h. For siLuc2, the final concentration in media was 25 nM and for siGFP 100 nM. Cells were co-incubated with complexes for 4 h (37° C., 5% CO2), thereafter fresh serum containing media was added and followed by further incubation (20 h for siLuc2 or 44 h for siGFP complexes). Luciferase gene downregulation was measured from cell lysates with Promega luciferase assay system (Promega, Sweden) in combination with GLOMAX 96 microplate luminometer equipped with GLOMAX 1.9.2 software (Promega). GFP was measured after treatment from cell lysates on black 96-well plates by measuring total fluorescence (Symergy MX, BioTek Instruments, USA equipped with Gen5 1.10 software). The results were normalized to the protein content of each sample (DC Protein Assay, BioRad, USA).
For flow cytometry analysis (FACS) analysis CHO-GFP cells were seeded and treated as described previously. After incubation, cells were washed with 1× PBS and detached from plates with trypsin-EDTA (0.25%), and re-suspended in PBS supplemented with FBS (5%) and transferred to transparent U-bottom 96-well plates. FACS was carried out with BD LSR II flow cytometer (BD Biosciences, San Jose, CA, USA) equipped with a 488 nm argon laser. Population of viable cells was determined from scatter plot: forward scattered plot (FSC) vs. side scattered light (SSC) plot. A minimum of 10,000 events from the viable cell population per sample were analyzed using BD FACS Diva software. Results are shown as the population with GFP signal lower than that of 0.1% of untreated cells.
For confocal microscopy 2×10^5 cells per chamber were seeded on NUNC 8-chamber plates. After treatment with complexes (25 ul of pre-formed CPP/siRNA complexes added to cells in 225 ul serum containing media), incubated (48 h) and GFP florescence images of cells were captured using confocal microscope Zeiss LSM 710 and excitation at 488 nm (493-616 filter).

The subject of the next data set is organs of BALB/c mice. The experiment in a line: Gene delivery in vivo (CPP/pDNA, i.v., organ luminescence). The arrangement: species or system mouse. As to conditions: for reporter gene expression in organs after i.v. CPP/pDNA (in words): CR2 or CR4, 50 μg or 20 μg pDNA, 24 h. As for the experimental part: For in vivo pDNA delivery studies BALB/c mice were used. Each animal received a single […] intravenous (i.v.) injection of the complexes at CR2 or CR4. Two doses of pDNA […] were used. After 24 hr, the mice were sacrificed using cervical dislocation, and whole organs were harvested and snap-frozen on dry ice. The organs were homogenized, and luminescence was measured.
Background: Reporter assays use an easily measured gene product as a stand-in for the process of interest.

For data set [2], the system named is U87 MG-luc2 human glioma cells, stably expressing luc2. The experiment in a line: Luciferase gene downregulation by CPP/siRNA (siLuc2) complexes. Format: cell-based. As to conditions: for luciferase downregulation efficiency (in words) / Red (%) (reduction, based on remaining luminescence on U87 cells post-treatment): CPP/siRNA complexes; for luciferase downregulation efficiency (in words): comparison between CPPs; for Red (%) (reduction, based on remaining luminescence on U87 cells post-treatment): siRNA against luciferase; for IC50: read-out: IC50 (siRNA concentration), luciferase downregulation; for remaining reporter activity: molar ratio 30 (MR30, peptide to siRNA), untreated cells 100%. The essentials: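 U87-luc2 cells in serum-containing medium got peptide/siLuc2 complexes formed in water (pH 5.3-6.3, MR 40:1, 1 h RT) at 25 nM siRNA for 4 h at 37 °C, then 20 h more. Lysate luminescence normalized to protein; in other runs, MR30/10 nM in HEPES-FBS, or varied MR at 50 nM, vs untreated (100%).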

In the next data set the test system is murine red blood cells. The experiment in a line: Membrane activity assay on murine red blood cells: hemolysis. It is filed as cell-based, mouse. As to conditions: for HC50 CPP/siRNA complex (peptide concentration): CPP/siRNA complexes at MR30; for HC50 Free peptide: pH 7.5. The essentials:
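Washed BALB/c mouse RBCs in 2× PBS (pH 7.5 for hemolytic concentration; pH 5.5-7.5 otherwise) incubated with peptide plus glucose at 37° C for 1 h with gentle mixing. Released hemoglobin in supernatant read at 540 nm, scaled between glucose/water (0%) and 0.1% Triton X-100 (100%) controls.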

The mark [3] stands for this setting: complexes formed at MR30, average.

Take `CCCCCCCCCCCCCCCCCCCC(=O)N[C@@H](Cc1c[nH]cn1)C(=O)N[C@@H](Cc1c[nH]cn1)C(=O)N[C@@H](Cc1c[nH]cn1)C(=O)N[C@@H](Cc1c[nH]cn1)C(=O)N[C@@H](Cc1ccc(O)cc1)C(=O)N[C@@H](Cc1c[nH]cn1)C(=O)N[C@@H](Cc1c[nH]cn1)C(=O)NCC(=O)NCCC[C@H](N)C(=O)N[C@H](C(=O)N[C@@H](CC(C)C)C(=O)N[C@@H](CC(C)C)C(=O)N[C@@H](CCCCN)C(=O)N[C@@H](C)C(=O)N[C@@H](CC(C)C)C(=O)N[C@@H](CCCCN)C(=O)N[C@@H](C)C(=O)N[C@@H](CC(C)C)C(=O)N[C@@H](C)C(=O)N[C@@H](CCCCN)C(=O)N[C@@H](C)C(=O)N[C@H](C(=O)N[C@@H](CC(C)C)C(N)=O)[C@@H](C)CC)[C@@H](C)CC` [NF70] (I: H-[Orn]ILLKALKALAKAIL-NH2 / II: Arachidoyl-HHHHYHHG; amide I:1-II:C): in data set [1], the “GFP signal in confocal images” value is given as “detected GFP signal was the lowest”. Further, the “reporter gene expression in organs after i.v. CPP/pDNA (in words)” value in the data set with organs of BALB/c mice is “very low transfection levels in vivo”. Further, the “luciferase downregulation efficiency (in words)” value in data set [2] (listed as H6-C20) is given as “equally strong downregulation of the luciferase gene; also recorded: at MR40 it was even more efficient than PF6 or H4-C18”. In data set [2], the “Red (%) (reduction, based on remaining luminescence on U87 cells post-treatment)” value amounted to 92% and the remaining reporter activity is 15%. The “downregulation of luciferase activity” value in data set [2] (H6 series, effect of fatty acid length) is “up to 95%”. Also, the IC50 in data set [2] (complexes formed at MR30, average, listed as H6-C20) was 14.7 nM. Also, in data set [2] (setting [3]), the IC50 was found to be 14.8 nM. Also, the IC50 in data set [2] (complexes formed at MR30 and MR40, similar average value) was 14.7 to 14.8 nM. For the same compound, in the data set on murine red blood cells, the “hemolytic concentration, fold higher than NF71” value came to 3.6 and the “HC50 CPP/siRNA complex (peptide concentration)” value turned out to be 8.3 µM. In the data set on murine red blood cells (free peptide), the “HC50 times higher than that of NF55” value was determined as 2.5 times and the “HC50 Free peptide” value worked out at 4.3 µM. Besides, the “pH dependent hemolytic activity (in words)” value with murine red blood cells (peptide 0.75 uM, buffer pH 5.5-7.5) is reported as “the increase was less substantial”.
Consider `CCCCCCCCCCCCCCCCCC(=O)N[C@@H](Cc1c[nH]cn1)C(=O)N[C@@H](Cc1c[nH]cn1)C(=O)N[C@@H](Cc1ccc(O)cc1)C(=O)N[C@@H](Cc1c[nH]cn1)C(=O)N[C@@H](Cc1c[nH]cn1)C(=O)NCC(=O)NCCC[C@H](N)C(=O)N[C@H](C(=O)N[C@@H](CC(C)C)C(=O)N[C@@H](CC(C)C)C(=O)N[C@@H](CCCCN)C(=O)N[C@@H](C)C(=O)N[C@@H](CC(C)C)C(=O)N[C@@H](CCCCN)C(=O)N[C@@H](C)C(=O)N[C@@H](CC(C)C)C(=O)N[C@@H](C)C(=O)N[C@@H](CCCCN)C(=O)N[C@@H](C)C(=O)N[C@H](C(=O)N[C@@H](CC(C)C)C(N)=O)[C@@H](C)CC)[C@@H](C)CC` [NF71] (I: H-[Orn]ILLKALKALAKAIL-NH2 / II: Stearoyl-HHYHHG; amide I:1-II:C), for which the “GFP signal in confocal images” value in data set [1] is given as “detected GFP signal was the lowest”. The “downregulation of GFP (average, cell lysate fluorescence)” value in data set [1] (siGFP 100 nM) was “lower than with H6^1-C20 or H8-C20”. Also, in the data set on organs of BALB/c mice, the “reporter gene expression in organs after i.v. CPP/pDNA (in words)” value was “high reporter gene expression in liver and lungs”. Also, the “transfection level in liver at CR2 compared to CR4” value in the data set on organs of BALB/c mice (liver) was 7 fold. In addition, the “transfection level in lungs at CR2 compared to CR4” value in the data set on organs of BALB/c mice (lungs) was 3 fold. For the same compound, in data set [2], the “luciferase downregulation efficiency (in words)” value was “most efficient peptides even at low MRs”; the “Red (%) (reduction, based on remaining luminescence on U87 cells post-treatment)” value is 88%; the remaining reporter activity turned out to be 13%. For the same compound, the IC50 in data set [2] (complexes formed at MR20) is 11.1 nM. The IC50 in data set [2] (setting [3]) was found to be 6.8 nM. The “HC50 CPP/siRNA complex (peptide concentration)” value in the data set with murine red blood cells came to 2.5 µM. Besides, the “HC50 Free peptide” value with murine red blood cells (free peptide) came to 1.2 µM. In the data set on murine red blood cells (free peptide, up to 10 uM), the “hemolytic activity of free peptide (in words)” value is listed as “more hemolytic than its parent peptide NF55”.
